The supplement of paper PMC11061612

Columns and labels:
[1] = test system: SKG-IIIa (Cervical Carcinoma); assay: Bliss excess, mean over the matrix (fraction); higher = more synergy
Procedure, shortened: (§1)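 Cell lines grown in DMEM/F12 or RPMI with 10% FBS were plated in 1536-well plates and held 24 hours at 37°C, 5% CO2 before 72 hours of exposure to two-drug dose matrices, with DMSO typically at 0.2%. CellTiter-Glo 2.0 luminescence gave viability, which was converted to inhibition. Vehicle wells were set to 0 and blank wells to 1. Combination Emax is the second-highest inhibition in the matrix, and Bliss excess is the observed combination effect minus the expected EA + EB − EA·EB, where EA and EB are the single-agent effects.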

[2] = test system: RCC-JW (Kidney Carcinoma); assay: as above
Procedure, shortened: as §1

[3] = test system: GAK (Melanoma); assay: as above
Procedure, shortened: as §1

[4] = test system: T84 (Colorectal Carcinoma); assay: as above
Procedure, shortened: as §1

[5] = test system: ZR-75-30 (Breast Carcinoma); assay: as above
Procedure, shortened: as §1

[6] = test system: SCC-4 (Oral Cavity Carcinoma); assay: as above
Procedure, shortened: as §1

[7] = test system: ES6 (Ewing's Sarcoma); assay: as above
Procedure, shortened: as §1

[8] = test system: MS-1 (Small Cell Lung Carcinoma); assay: as above
Procedure, shortened: as §1

[9] = test system: SK-N-SH (Neuroblastoma); assay: as above
Procedure, shortened: as §1

[10] = test system: KALS-1 (Glioblastoma); assay: as above
Procedure, shortened: as §1

[11] = test system: KP-4 (Pancreatic Carcinoma); assay: as above
Procedure, shortened: as §1

[12] = test system: BxPC-3 (Pancreatic Carcinoma); assay: as above
Procedure, shortened: as §1

[13] = test system: NAMALWA (Burkitt's Lymphoma); assay: as above
Procedure, shortened: as §1

[14] = test system: KP-4 (Pancreatic Carcinoma); assay: combination Emax (second highest fraction inhibited in the dose matrix, 72 h); higher = more inhibition; extreme values may be limits of the assay
Procedure, shortened: as §1
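Wherever Bliss excess, mean over the matrix is given: after 72 h of two-drug dosing.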

Compound	Bliss excess [1]	Bliss excess [2]	Bliss excess [3]	Bliss excess [4]	Bliss excess [5]	Bliss excess [6]	Bliss excess [7]	Bliss excess [8]	Bliss excess [9]	Bliss excess [10]	Bliss excess [11]	Bliss excess [12]	Bliss excess [13]	combination Emax [14]
C=CCn1c(=O)c2cnc(Nc3ccc(N4CCN(C)CC4)cc3)nc2n1-c1cccc(C(C)(C)O)n1 [AZD1775] + CCc1c2c(nc3ccc(O)cc13)-c1cc3c(c(=O)n1C2)COC(=O)[C@]3(O)CC [SN-38] (first compound max 1 µM, partner max 0.3 µM)	-0.0319	-0.0187	-0.0432	0.0598	-0.0938	-0.0732	-0.0995	-0.0292	-0.019	0.0642	0.0054	-0.101	-0.0172	–
C=CCn1c(=O)c2cnc(Nc3ccc(N4CCN(C)CC4)cc3)nc2n1-c1cccc(C(C)(C)O)n1 [AZD1775] + Nc1ccn([C@@H]2O[C@H](CO)[C@@H](O)C2(F)F)c(=O)n1 [Gemcitabine] (first compound max 1 µM, partner max 0.3 µM)	0.0393	-0.0163	-0.0443	0.0564	-0.0561	-0.0574	-0.0385	-0.0721	-0.0051	0.0299	–	-0.029	0.0247	–
CN(CCO)CC[C@H](CSc1ccccc1)Nc1ccc(S(=O)(=O)NC(=O)c2ccc(N3CCC([C@@H](O)c4ccccc4-c4ccc(Cl)cc4)CC3)cc2)cc1S(=O)(=O)C(F)(F)F [AZD4320] + CC(=O)O[C@H]1C(=O)[C@@]2(C)[C@H]([C@H](OC(=O)c3ccccc3)[C@]3(O)C[C@H](OC(=O)[C@H](O)[C@@H](NC(=O)c4ccccc4)c4ccccc4)C(C)=C1C3(C)C)[C@]1(OC(C)=O)CO[C@@H]1C[C@@H]2O [Paclitaxel] (first compound max 1 µM, 7x7, partner max 3 µM)	0.133	0.0707	0.0815	-0.0222	0.0901	0.0946	0.101	0.0825	-0.0254	0.0468	-0.0097	0.157	-0.01	–
CN(CCO)CC[C@H](CSc1ccccc1)Nc1ccc(S(=O)(=O)NC(=O)c2ccc(N3CCC([C@@H](O)c4ccccc4-c4ccc(Cl)cc4)CC3)cc2)cc1S(=O)(=O)C(F)(F)F [AZD4320] + CS(=O)(=O)CCNCc1ccc(-c2ccc3ncnc(Nc4ccc(OCc5cccc(F)c5)c(Cl)c4)c3c2)o1 [Lapatinib] (first compound max 1 µM, 7x7, partner max 10 µM)	-0.0081	-0.0443	0.0059	-0.0061	0.0458	0.0692	-0.0017	0.068	0.112	0.0176	-0.0251	-0.025	-0.015	0.186
CN(CCO)CC[C@H](CSc1ccccc1)Nc1ccc(S(=O)(=O)NC(=O)c2ccc(N3CCC([C@@H](O)c4ccccc4-c4ccc(Cl)cc4)CC3)cc2)cc1S(=O)(=O)C(F)(F)F [AZD4320] + Nc1ccn([C@@H]2O[C@H](CO)[C@@H](O)C2(F)F)c(=O)n1 [Gemcitabine] (first compound max 1 µM, 7x7, partner max 0.3 µM)	0.0259	-0.0025	0.0955	-0.0434	-0.0052	0.0027	0.0253	-0.0023	0.0106	0.0063	–	-0.0248	–	–
Cc1c2c(nn1C)CSCc1cc(n(C)n1)CSc1cc(c3ccccc3c1)OCCCc1c(C(=O)O)n(C)c3c-2c(Cl)ccc13 [AZD5991] + CC(=O)O[C@H]1C(=O)[C@@]2(C)[C@H]([C@H](OC(=O)c3ccccc3)[C@]3(O)C[C@H](OC(=O)[C@H](O)[C@@H](NC(=O)c4ccccc4)c4ccccc4)C(C)=C1C3(C)C)[C@]1(OC(C)=O)CO[C@@H]1C[C@@H]2O [Paclitaxel] (first compound max 1 µM, 7x7, partner max 3 µM)	-0.036	-0.0029	0.0893	-0.0379	0.0617	-0.0628	0.005	-0.0135	-0.0507	0.0314	-0.0288	0.0075	0.0041	0.965
Cc1c2c(nn1C)CSCc1cc(n(C)n1)CSc1cc(c3ccccc3c1)OCCCc1c(C(=O)O)n(C)c3c-2c(Cl)ccc13 [AZD5991] + CS(=O)(=O)CCNCc1ccc(-c2ccc3ncnc(Nc4ccc(OCc5cccc(F)c5)c(Cl)c4)c3c2)o1 [Lapatinib] (first compound max 1 µM, 7x7, partner max 10 µM)	0.0014	-0.0401	0.015	0.0239	0.063	0.0449	0.0331	-0.0273	0.0615	0.0053	-0.0211	-0.005	-0.0204	0.15
Cc1c2c(nn1C)CSCc1cc(n(C)n1)CSc1cc(c3ccccc3c1)OCCCc1c(C(=O)O)n(C)c3c-2c(Cl)ccc13 [AZD5991] + Nc1ccn([C@@H]2O[C@H](CO)[C@@H](O)C2(F)F)c(=O)n1 [Gemcitabine] (first compound max 1 µM, 7x7, partner max 0.3 µM)	-0.0271	0.0274	0.01	-0.0187	0.0283	-0.0333	-0.002	-0.0371	-0.0198	-0.0036	–	0.0052	-0.0379	–
C[C@@H]1COCCN1c1cc(C2([S@](C)(=N)=O)CC2)nc(-c2ccnc3[nH]ccc23)n1 [AZD6738] + C1CC(C1)(C(=O)[O-])C(=O)[O-].N.N.[Pt+2] [Carboplatin] (first compound max 10 µM, 7x7, partner max 10 µM)	-0.0079	0.0051	-0.0442	-0.0041	-0.0119	0	-0.0116	-0.093	-0.028	-0.0426	-0.0351	-0.0539	-0.0293	0.471
C[C@@H]1COCCN1c1cc(C2([S@](C)(=N)=O)CC2)nc(-c2ccnc3[nH]ccc23)n1 [AZD6738] + Nc1ccn([C@@H]2O[C@H](CO)[C@@H](O)C2(F)F)c(=O)n1 [Gemcitabine] (first compound max 10 µM, 7x7, partner max 0.3 µM)	0.0657	0.0928	-0.0055	0.0477	0.0117	0.0044	-0.0072	0.0014	0.0248	0.0483	–	0.008	0.0357	–
Cc1cc2ncnn2cc1Nc1ncc2c(n1)n(C1CCOCC1)c(=O)n2C [AZD7648] + COc1cc([C@@H]2c3cc4c(cc3[C@@H](O[C@@H]3O[C@@H]5CO[C@@H](C)O[C@H]5[C@H](O)[C@H]3O)[C@H]3COC(=O)[C@H]23)OCO4)cc(OC)c1O [Etoposide] (first compound max 10 µM, 7x7, partner max 10 µM)	0.0558	0.132	0.0732	-0.0105	-0.0044	0.0043	-0.0009	0.0655	0.0634	0.101	0.122	-0.0254	0.0745	0.878
C[C@@H](Nc1cc(F)cc(F)c1)c1cc(C(=O)N(C)C)cc2c(=O)cc(N3CCOCC3)oc12 [AZD8186] + C1CN(CCC1(C(=O)N[C@@H](CCO)C2=CC=C(C=C2)Cl)N)C3=NC=NC4=C3C=CN4 [AZD5363] (first compound max 10 µM, 7x7, partner max 10 µM)	-0.0225	0.0563	-0.0303	-0.0085	-0.0104	-0.0276	-0.0213	-0.0446	-0.0269	-0.0397	-0.0583	-0.0731	0.0078	0.249
C[C@@H](Nc1cc(F)cc(F)c1)c1cc(C(=O)N(C)C)cc2c(=O)cc(N3CCOCC3)oc12 [AZD8186] + CC(=O)c1c(C)c2cnc(Nc3ccc(N4CCNCC4)cn3)nc2n(C2CCCC2)c1=O [Palbociclib] (first compound max 10 µM, 7x7, partner max 10 µM)	-0.0661	0.0622	0.0192	-0.0468	-0.0465	0.0328	-0.0155	-0.0484	0.0108	0.0114	0.0976	-0.0127	0.0544	0.601
C[C@@H](Oc1cc(-c2cnn(C3CCNCC3)c2)cnc1N)c1c(Cl)ccc(F)c1Cl [Crizotinib] + CC1=C(C(=CC=C1)Cl)NC(=O)C2=CN=C(S2)NC3=CC(=NC(=N3)C)N4CCN(CC4)CCO [Dasatinib] (first compound max 10 µM, 7x7, partner max 2 µM)	0.0166	-0.065	-0.0786	0.0051	-0.0431	0.0487	-0.0119	-0.118	0.0049	0.0652	0.0493	0.035	0.0586	0.848
C[C@@H](Oc1cc(-c2cnn(C3CCNCC3)c2)cnc1N)c1c(Cl)ccc(F)c1Cl [Crizotinib] + Cn1cnc2c(F)c(Nc3ccc(Br)cc3Cl)c(C(=O)NOCCO)cc21 [Selumetinib] (first compound max 10 µM, 7x7, partner max 10 µM)	-0.0048	-0.0432	-0.0473	-0.0143	-0.0416	-0.0514	-0.0552	-0.0926	-0.0546	-0.005	0.0259	-0.0323	-0.0259	0.838
N#Cc1cnc(Nc2cc(NC[C@H]3CNCCO3)c(C(F)(F)F)cn2)cn1 [SRA737] + CCc1c2c(nc3ccc(O)cc13)-c1cc3c(c(=O)n1C2)COC(=O)[C@]3(O)CC [SN-38] (first compound max 10 µM, 7x7, partner max 0.3 µM)	0.0311	-0.0857	–	-0.0351	-0.0375	0.007	-0.0423	-0.0022	-0.0471	0.0836	-0.031	-0.0428	-0.0123	–
N#Cc1cnc(Nc2cc(NC[C@H]3CNCCO3)c(C(F)(F)F)cn2)cn1 [SRA737] + Nc1ccn([C@@H]2O[C@H](CO)[C@@H](O)C2(F)F)c(=O)n1 [Gemcitabine] (first compound max 10 µM, 7x7, partner max 0.3 µM)	0.13	0.0179	-0.011	0.0819	-0.0408	–	-0.0212	0.0566	-0.0168	0.0597	–	-0.0421	0.0256	–
